Results from US9328093B2, “Selective inhibitors of ubiquitin specific protease 7, the pharmaceutical compositions thereof and their therapeutic applications” (HYBRIGENICS SA, priority 2010, dated 2016).

target: T1, Caspase 3 (Homo sapiens, UniProt P42574); assay: Caspase 3 activity assay (Ac-DEVD-AMC substrate); type: biochemical; conditions: Ac-DEVD-AMC 250 nM, Caspase 3 1.6 nM
T1 sequence (P42574 29-175 limits assumed): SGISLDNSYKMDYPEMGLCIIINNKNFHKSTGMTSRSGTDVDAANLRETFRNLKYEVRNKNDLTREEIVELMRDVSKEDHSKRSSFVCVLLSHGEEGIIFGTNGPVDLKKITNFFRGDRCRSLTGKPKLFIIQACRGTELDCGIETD
T1 sequence (P42574 176-277 limits assumed): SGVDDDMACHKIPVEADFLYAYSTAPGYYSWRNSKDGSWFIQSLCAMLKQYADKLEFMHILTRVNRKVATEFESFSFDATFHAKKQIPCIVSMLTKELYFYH
Protocol: Caspase 3 was diluted in Caspase 3 buffer (100 mM Hepes pH 7.5; 10% sucrose; 0.1% CHAPS). Compounds stocks (100 mM) were stored at −20° C. in DMSO. Compounds were tested at different concentrations: from 200 μM to 91 nM.
Reactions were performed as duplicates in Black 384 well plates (small volume microplates; Greiner; 10 μl final reaction volume). The substrate concentration for caspase 3 specificity assay was 250 nM (Ac-DEVD-AMC; Promega). The concentration of the enzyme (Caspase 3) in specificity assays was 1.6 nM. The concentrations were determined in order to perform specificity assays under initial velocities at fixed substrate concentration. Compounds were pre-incubated with enzymes for 30 minutes at 25° C. Reactions were initiated by addition of substrate to the plates containing the enzymes (+/− compounds) diluted in assay buffer. Reactions were incubated for 60 minutes at 37° C. Reactions were stopped by adding acetic acid (100 mM final). Readings were performed on a Pherastar Fluorescent Reader (BMG). λ Emission 380 nm; λ Excitation=460 nm. Data (mean values+/− standard deviation) were analyzed as % of control (no compound) and plotted as percentage versus the Log of the compound concentration using GraphPad (Prism). Data were fitted to a sigmoidal model (variable slope).

SMILES	IC50 [µM]
CN1CCCC1CCNC(=O)c1ccc2c(Cl)c3c(nc2c1)CCCC3 (stereo not drawn) [Example 17, 9-chloro-N-(2-(1-methylpyrrolidin-2-yl)ethyl)-5,6,7,8-tetrahydroacridino-3-carboxamide]	> 200
O=C(NCc1cccc(CN2CCCC2)c1)c1ccc2c(Cl)c3c(nc2c1)CCCC3 [Example 18, 9-chloro-N-(3-(pyrrolidin-1-ylmethyl)benzyl)-5,6,7,8-tetrahydroacridine-3-carboxamide]	> 200
O=C(Nc1cccc(CN2CCCC2)c1)c1ccc2c(Cl)c3c(nc2c1)CCCC3 [Example 19, 9-chloro-N-(3-(pyrrolidin-1-ylmethyl)phenyl)-5.6,7,8-tetrahydroacridine-3-carboxamide]	> 200
CC1CCCCN1CCCNC(=O)c1ccc2c(Cl)c3c(nc2c1)CCCC3 (stereo not drawn) [Example 20, 9-chloro-N-(3-(2-methylpiperidin-1-yl)propyl)-516,7,8-tetrahydroacridine-3-carboxamide]	> 200
O=C(NCc1ccc(CN2CCCC2)cc1)c1ccc2c(Cl)c3c(nc2c1)CCCC3 [Example 21, 9-chloro-N-(4-(pyrrolidin-1-ylmethyl)benzyl)-5,6,7,8-tetrahydroacridine-3-carboxamide]	> 200
COc1ccc(CN2CCC(CNC(=O)c3ccc4c(Cl)c5c(nc4c3)CCCC5)CC2)cc1 [Example 22, 9-chloro-N-((1-(4-methoxybenzyl)piperidin-4-yl)methyl)-5,6,7,8-tetrahydroacridine-3-carboxamide]	> 200
CN(C)c1ccc(CN2CCC(CNC(=O)c3ccc4c(Cl)c5c(nc4c3)CCCC5)CC2)cc1 [Example 23]	> 200
O=C(NCC1CCNCC1)c1ccc2c(Cl)c3c(nc2c1)CCCC3 [Example 24, 9-chloro-N-((piperidin-4-yl)methyl)-5,6,7,8-tetrahydroacridine-3-carboxamide]	> 200
O=C(NCC(CN1CCCC1)C(O)c1ccccc1)c1ccc2c(Cl)c3c(nc2c1)CCCC3 (stereo not drawn) [Example 25, 9-chloro-N-(3-hydroxy-3-phenyl-2-pyrrolidin-1-ylmethylpropyl)-5,6,7,8-tetrahydroacridine-3-carboxamide]	> 200
